Experimental data reported in paper PMC3743924 (The Biochemical journal, 2013).

Experiments:
APH(3')-Ia [1] = biological target: T1, APH(3')-Ia (Escherichia coli, UniProt P00551); conditions: Ca2+ complex; nucleotide site
APH(3')-Ia [2] = biological target: T1, APH(3')-Ia; test: activity assay with kanamycin; format: biochemical; conditions: co-substrate kanamycin; constants unpublished
APH(3')-Ia [3] = biological target: T1, APH(3')-Ia; test: X-ray crystal structure, […]-2.[…] A; format: binding; conditions: ternary complex with kanamycin; ATP site; pH 4.5

T1 sequence (P00551 whole entry): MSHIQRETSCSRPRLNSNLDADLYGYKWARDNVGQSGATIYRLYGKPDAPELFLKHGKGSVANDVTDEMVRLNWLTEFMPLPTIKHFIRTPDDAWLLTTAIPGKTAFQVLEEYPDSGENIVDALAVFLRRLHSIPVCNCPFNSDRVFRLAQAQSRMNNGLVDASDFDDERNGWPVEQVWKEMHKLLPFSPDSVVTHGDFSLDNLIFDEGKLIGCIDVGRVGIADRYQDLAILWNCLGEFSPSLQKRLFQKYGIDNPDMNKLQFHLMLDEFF

Nc1ncnc2c1ncn2[C@@H]1O[C@H](COP(=O)(O)OP(=O)(O)OP(=O)(O)O)[C@@H](O)[C@H]1O [ATP]
X-ray crystal structure, 2.3-2.4 A (APH(3')-Ia [1]): unambiguous additional density corresponding to the ATP molecule

Nc1nc2c(ncn2[C@@H]2O[C@H](COP(=O)(O)OP(=O)(O)OP(=O)(O)O)[C@@H](O)[C@H]2O)c(=O)[nH]1 [GTP]
activity assay with kanamycin (APH(3')-Ia [2]): indicating GTP is a superior substrate

COc1cc2ncnc(Nc3cccc(Cl)c3)c2cc1OC [Tyrphostin AG 1478, N-(3-chlorophenyl)-6,7-dimethoxyquinazolin-4-amine]
X-ray crystal structure, 2.69-2.71 A (APH(3')-Ia [3]): the inhibitor molecule was held in the NTP binding site through hydrophobic interactions
